Entries after “also recorded” stand apart in the source; their conditions may differ.

The subject of experiment [1] is CD4 and CD8 T cells (donor PBMCs). The experiment in a line: T cell proliferation assay: CellTrace Violet dye dilution, PBMCs stimulated with anti-CD3/anti-CD28 antibodies and IL-2, treated with ROS-modulating drugs. Format: cell-based, human. Particulars: for effect in lowering T cell proliferation in LC female donors: female LC PBMCs (FIG. 16); for effect in reducing T cell hyperproliferation in ME/CFS donors: female ME/CFS donors, p: NAC CD4 0.82, CD8 0.7, metformin CD4 0.041, CD8 0.39, liproxstatin-1 CD4 0.31, CD8 0.18; for reduction in T cell proliferation upon treatment, male ME/CFS: male ME/CFS PBMCs (FIG. 17: 100 μM N-acetylcysteine, 10 μM metformin, 1 μM liproxstatin-1); for proportion of proliferating CD4 T cells upon stimulation: patient 27 (ME/CFS) PBMCs treated at day 0, read 5 days after stimulation, untreated 79.3%; for proportion of proliferating T cells, HC and ME-CFS PBMCs (FIG. 15): 100 μM N-acetylcysteine, liproxstatin-1, 5-days post activation.

Experiment [2] relates to CD4 T cells. The experiment in a line: Screening for reversal of oxidative damage: PBMCs treated with ROS inducer, then candidate drug; lipid peroxidation by flow cytometry (FIG. 9B, 9F). Format: cell-based, human. Particulars: drug after ROS inducer, versus positive control cells treated only with ROS inducer (FIG. 9F). The method, then: FIGS. 9A-9F. Screening assays. (A) To identify drugs that can protect immune cell populations from oxidative stress, PBMCs are treated with candidate drugs (e.g., liproxstatin-1, metformin) for an hour, before treatment with ROS inducer (e.g., cumene […], tert-butyl hydroperoxide). By subsequently labeling cells with metabolic dyes to track oxidative stress parameters, comparisons with immune cells only treated with ROS inducer enable quantification of drugs capacity to protect against oxidative stress and damage in immune cell populations. (B) To identify drugs that can reverse oxidative stress and damage in immune cell populations, PBMCs are treated first with a ROS inducer for 30 minutes to an hour, before subsequent treatment with candidate drugs. By labeling with metabolic dyes and comparing the drug treated immune cell populations to those treated only with ROS inducer, we can quantify the capacity for drugs to reverse oxidative stress and damage in PBMCs. (C) To link these metabolic changes with immune cell function, control and disease PBMCs (e.g., from fatigue-syndrome patients) are labeled with proliferation dyes, upon which T cells are stimulated with anti-CD3/anti-CD28 antibodies and IL-2. By treating PBMCs with drugs identified from methodologies described in 9A and 9B, we can assess how metabolic changes to oxidative stress levels in drugs also modulate functional capacity of donor T cells to proliferate. While flowchart is specific to T cells (e.g., anti-CD3/anti-CD28 stimulation), the core methodology is applicable to other immune cell populations, where changes in immune cells capacity to proliferate can be assessed upon treatment with candidate drugs. (D) Application of methodology to a specific CFS patient is shown, where PBMCs treated with ROS-modulating drugs including N-acetylcysteine, metformin, and liproxstatin-1. Flow cytometry data is shown for CD4 T cells, where the x-axis corresponds to CellTraceViolet (proliferation dye) staining and the y-axis corresponds to total ROS levels. […] (E) Proportion of proliferating T cells are shown for a specific CFS patient (patient 27) along with their […] and […]. […] Lipid peroxidation changes are shown, where higher oxidative damage corresponds to a lower value on the y-axis. Identified drugs include N-acetylcysteine (NAC), metformin, liproxstatin-1, nicotinamide mononucleotide (NMN), oxaloacetate, MitoQ, Abilify, Colchicine, Naltrexone. Although this methodology is shown for CD4 T cells, it is broadly applicable to other immune cell populations (e.g., myeloid cells).
Staining: To stain for mitochondrial parameters, cells were stained with BioTracker ATP-Red Live Cell Dye (Sigma Aldrich), MitoTracker Deep Red FM (ThermoFisher), MitoSpy Green FM (BioLegend). To stain for ROS levels, cells were stained with DCFDA cellular ROS assay kit (abcam), MitoSOX Red Mitochondrial Superoxide detector (ThermoFisher). To stain for glutathione clearance and oxidative damage, cells were stained with ThiolTracker Violet (ThermoFisher), HCS LipidTOX Green Neutral Lipid Stain (ThermoFisher) for lipid droplet levels, and Image-iT™ Lipid Peroxidation Kit, ratiometric lipid peroxidation sensor (ThermoFisher). To capture viability, cells were stained with LIVE/DEAD Fixable Far Red Dead Cell Stain (ThermoFisher).

Experiment [3] deals with patients. As to conditions: double-blinded phase III studies on >1300 patients, especially among female patients; cited from earlier work.

Turning to `CN(C)C(=N)N=C(N)N` [metformin], the “effect on T cell proliferation in healthy controls” value in experiment [1] (HC donors, 5 days post stimulation, metformin CD4 p=1, CD8 p=0.69) is “no effect; also recorded: does not alter proliferation”. Moreover, in experiment [1] (LC donor PBMCs, metformin treatment (10 μM, FIG. 16B), p=0.31), the “average reduction of CD4 T cell proliferation” value came to 5.2%. The “average reduction of CD8 T cell proliferation” value in experiment [1] (LC donor PBMCs, metformin treatment (10 μM, FIG. 16B), p=0.42) was determined as 7.6%. Further, in experiment [1] (5 days post stimulation), the “effect in lowering T cell proliferation in LC female donors” value was “smaller and non-statistically significant effect”; the “effect in reducing T cell hyperproliferation in ME/CFS donors” value is “statistically significant effect in reducing CD4 T cell hyperproliferation; also recorded: statistically significant reduction”. In addition, in experiment [1], the “reduction in T cell proliferation upon treatment, male ME/CFS” value (“reduction … male ME/CFS” for short) was “did not observe any reduction” and the “proportion of proliferating CD4 T cells upon stimulation” value is reported as 53.2%. The “capacity for reversing oxidative damage (lipid peroxidation changes)” value (“capacity … (lipid peroxidation changes)” below) in experiment [2] was “reversing oxidative damage”. For the same compound, the “reduction of Long COVID incidence” value in experiment [3] is listed as 41%.

Turning to `NC(=O)c1ccc[n+]([C@@H]2O[C@H](COP(=O)([O-])O)[C@@H](O)[C@H]2O)c1` [nicotinamide mononucleotide], in experiment [2], the “capacity … (lipid peroxidation changes)” value was “reversing oxidative damage”.

Take `O=C1CCc2ccc(OCCCCN3CCN(c4cccc(Cl)c4Cl)CC3)cc2N1` [Abilify]: the “capacity … (lipid peroxidation changes)” value in experiment [2] is “reversing oxidative damage”.

As for `COC1=C(OC)C(=O)C(CCCCCCCCCC[P+](c2ccccc2)(c2ccccc2)c2ccccc2)=C(C)C1=O` [MitoQ], in experiment [2], the “capacity … (lipid peroxidation changes)” value is reported as “reversing oxidative damage”.

As for `CC(=O)N[C@@H](CS)C(=O)O` [NAC, N-acetylcysteine], in experiment [1], the “proportion of proliferating T cells, HC and ME-CFS PBMCs (FIG. 15)” value is reported as “no difference or decrease”; the “reduction … male ME/CFS” value is reported as “did not observe any reduction”; the “proportion of proliferating CD4 T cells upon stimulation” value is reported as 54.3%. The “effect in reducing T cell hyperproliferation in ME/CFS donors” value in experiment [1] (5 days post stimulation) is reported as “did not have any effect”. Further, in experiment [2], the “capacity … (lipid peroxidation changes)” value was “reversing oxidative damage”.

Regarding `COc1cc2c(c(OC)c1OC)-c1ccc(OC)c(=O)cc1[C@@H](NC(C)=O)CC2` [Colchicine], in experiment [2], the “capacity … (lipid peroxidation changes)” value was “reversing oxidative damage”.

For the compound `Clc1cccc(CN=C2Nc3ccccc3NC23CCNCC3)c1` [liproxstatin-1], in experiment [1], the “proportion of proliferating T cells, HC and ME-CFS PBMCs (FIG. 15)” value is “selectively lowers proliferation in ME-CFS and not the HC donors”; the “reduction … male ME/CFS” value was “did not observe any reduction”; the “proportion of proliferating CD4 T cells upon stimulation” value was 64.5%. For the same compound, in experiment [1] (5 days post stimulation), the “effect in lowering T cell proliferation in LC female donors” value is “did not show a statistically significant effect” and the “effect in reducing T cell hyperproliferation in ME/CFS donors” value is given as “did not show a statistically significant effect”. For the same compound, in experiment [2], the “capacity … (lipid peroxidation changes)” value is on record as “reversing oxidative damage”.

In the case of `O=C1CC[C@@]2(O)[C@H]3Cc4ccc(O)c5c4[C@@]2(CCN3CC2CC2)[C@H]1O5` [Naltrexone], the “capacity … (lipid peroxidation changes)” value in experiment [2] is “reversing oxidative damage”.

The values above are taken from US20260259229A1, “FATIGUE SYNDROME SIGNATURES AND METHODS OF TREATMENT” (The Board of Trustees of the Leland Stanford Junior …, priority 2023, published 2026).
